Literature values in patent US8425924B2, “Propylene compositions containing a pyrethroid and products made therefrom” (ExxonMobil Chemical Patents Inc., priority 2009, dated 2013).

Conditions: thermal stability of the pyrethroid

Row | Compound | stable up to a temperature
1 | CC1(C)[C@H](C(=O)O[C@H](C#N)c2cccc(Oc3ccccc3)c2)[C@@H]1C=C(Br)Br [deltamethrin] | up to 320 °C
2 | C=CCC1=C(C)C(OC(=O)[C@@H]2[C@@H](C=C(C)C)C2(C)C)CC1=O (some centres unmarked) [allethrin I] | more than 400 °C
